One test addresses T1, human recombinant histamine H1 receptor (Homo sapiens, UniProt P35367).
T1 construct: expressed in transfected cells; host or cells: CHO cells
The experiment in a line: Histamine H1 radioligand binding ([3H]Pyrilamine). As to conditions: compound at 1 μM; CHO cells; read-out: Histamine Binding (1 μM) H1, percent inhibition of specific binding. An outline of the steps:
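Recombinant human H1 receptor expressed in CHO cells, in Tris-HCl pH 7.4 with MgCl2, NaCl and sucrose, incubated with 1.2 nM [3H]pyrilamine for 180 min at 25 °C; non-specific binding defined with 1 μM pyrilamine. Compounds tested at 1 μM in 1% DMSO; filter-bound counts give percent inhibition of specific binding.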
T1 sequence (P35367 whole entry): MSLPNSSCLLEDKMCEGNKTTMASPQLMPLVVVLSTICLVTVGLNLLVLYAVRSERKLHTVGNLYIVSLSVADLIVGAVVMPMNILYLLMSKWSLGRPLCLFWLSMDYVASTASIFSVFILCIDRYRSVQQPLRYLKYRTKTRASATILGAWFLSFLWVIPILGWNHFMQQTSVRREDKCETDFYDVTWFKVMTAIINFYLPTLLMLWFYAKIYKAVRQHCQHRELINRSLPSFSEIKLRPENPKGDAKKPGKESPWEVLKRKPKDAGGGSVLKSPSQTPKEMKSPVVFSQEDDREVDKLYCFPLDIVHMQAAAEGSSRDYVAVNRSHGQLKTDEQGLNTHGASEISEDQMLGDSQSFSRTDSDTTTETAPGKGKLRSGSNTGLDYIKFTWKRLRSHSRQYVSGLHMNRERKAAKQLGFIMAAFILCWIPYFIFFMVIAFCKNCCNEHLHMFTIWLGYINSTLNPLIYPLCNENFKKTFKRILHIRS
Take `Cc1ccc2c(c1)c1c(n2CCNC(=O)c2ccncc2)CCN(C)C1` [Compound 50, N-(2-(1,2,3,4-tetrahydro-2,8-dimethylpyrido[4,3-b]indol-5-yl)ethyl)isonicotinamide]: the inhibition (usually the change of the read-out against control, counted positive when it falls) at 1 µM came to 47%.
The same measure, in the same setting: the figure for `CCOC(=O)CCCn1c2c(c3cc(C)ccc31)CN(C)CC2` [Compound 5, ethyl 4-(1,2,3,4-tetrahydro-2,8-dimethylpyrido[4,3-b]indol-5-yl)butanoate] is 96%; for `CN1CCc2c(c3cc(Cl)ccc3n2CC(N)=O)C1` [Compound 45, 2-(8-chloro-1,2,3,4-tetrahydro-2-methylpyrido[4,3-b]indol-5-yl)acetamide] it is 82%; for `Cc1ccc2c(c1)c1c(n2CC(=O)NC(C)C)CCN(C)C1` [Compound 23, 2-(1,2,3,4-tetrahydro-2,8-dimethylpyrido[4,3-b]indol-5-yl)-N-isopropylacetamide] it is 65%.
Same read-out and setting: next, `Cc1ccc2c(c1)c1c(n2CCNC(=O)C2CCCCC2)CCN(C)C1` [Compound 62, N-(2-(1,2,3,4-tetrahydro-2,8-dimethylpyrido[4,3-b]indol-5-yl)ethyl)cyclohexanecarboxamide]: 63%.
Still for that read-out and setting: the figure for `CN1CCc2c(c3cc(Cl)ccc3n2CCC#N)C1` [CD94, 3-(8-chloro-2-methyl-3,4-dihydro-1H-pyrido[4,3-b]indol-5(2H)-yl)propanenitrile] is 97%.
Take `Cc1ccc2c(c1)c1c(n2CC(=O)NC(C)(C)C)CCN(C)C1` [Compound 24, N-tert-butyl-2-(1,2,3,4-tetrahydro-2,8-dimethylpyrido[4,3-b]indol-5-yl)acetamide]: the inhibition at 1 µM amounted to 44%.
On the same count and under the same terms, next, `CN1CCc2c(c3cc(Cl)ccc3n2CCO)C1` [CD89, 2-(8-chloro-2-methyl-3,4-dihydro-1H-pyrido[4,3-b]indol-5(2H)-yl)ethanol]: 92%; `Cc1ccc2c(c1)c1c(n2CCC(=O)NC2CCCCC2)CCN(C)C1` [Compound 3, N-cyclohexyl-3-(1,2,3,4-tetrahydro-2,8-dimethylpyrido[4,3-b]indol-5-yl)propanamide]: 2%; `Cc1ccc2c(c1)c1c(n2CCC(N)=O)CCN(C)C1` [Compound 46, 3-(1,2,3,4-tetrahydro-2,8-dimethylpyrido[4,3-b]indol-5-yl)propanamide]: 52%.
On the same count and under the same terms, the figure for `CN1CCc2c(c3cc(Cl)ccc3n2CCC(=O)OCc2ccccc2)C1` [Compound 19, benzyl 3-(8-chloro-1,2,3,4-tetrahydro-2-methylpyrido[4,3-b]indol-5-yl)propanoate] is 101%; for `Cc1ccc2c(c1)c1c(n2CCC(=O)Nc2ccccc2)CCN(C)C1` [Compound 29] it is 84%; for `Cc1ccc2c(c1)c1c(n2CCC(=O)NC(C)(C)C)CCN(C)C1` [Compound 28] it is 21%.

The same test, now with this note: read-out: Histamine Binding (1 μM) H1, percent inhibition of specific binding.
`CN1CCc2c(c3cc(Cl)ccc3n2CCBr)C1` [CD88, 5-(2-bromoethyl)-8-chloro-2-methyl-2,3,4,5-tetrahydro-1H-pyrido[4,3-b]indole]: the inhibition at 1 µM came to 98%.

For the next test, the target named is T2, human recombinant adrenergic α1D receptor (Homo sapiens, UniProt P25100).
T2 construct: expressed in transfected cells; host or cells: HEK-293 cells
T2 sequence (P25100 1-572): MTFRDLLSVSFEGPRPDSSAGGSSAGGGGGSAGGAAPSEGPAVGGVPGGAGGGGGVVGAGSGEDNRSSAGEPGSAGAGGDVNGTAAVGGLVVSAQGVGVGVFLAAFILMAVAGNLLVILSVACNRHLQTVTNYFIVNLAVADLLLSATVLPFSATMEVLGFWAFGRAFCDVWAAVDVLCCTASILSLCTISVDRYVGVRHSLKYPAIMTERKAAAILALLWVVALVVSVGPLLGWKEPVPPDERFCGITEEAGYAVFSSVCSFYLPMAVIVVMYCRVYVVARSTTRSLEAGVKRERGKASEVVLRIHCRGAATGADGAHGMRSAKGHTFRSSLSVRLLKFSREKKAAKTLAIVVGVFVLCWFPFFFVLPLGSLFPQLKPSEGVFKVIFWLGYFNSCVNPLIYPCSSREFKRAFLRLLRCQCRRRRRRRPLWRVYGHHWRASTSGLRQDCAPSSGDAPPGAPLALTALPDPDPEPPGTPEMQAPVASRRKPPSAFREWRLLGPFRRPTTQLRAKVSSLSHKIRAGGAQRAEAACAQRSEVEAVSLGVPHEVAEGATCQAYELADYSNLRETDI
The experiment in a line: Adrenergic α1D radioligand binding ([3H]Prozosin). As to conditions: compound at 1 μM; HEK-293 cells; read-out: Adrenergic (1 μM) α1D, percent inhibition of specific binding. The method, boiled down:
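Values are percent inhibition of specific [3H]prazosin (0.6 nM) binding, determined by filtration after 60 min at 25° C, pH 7.4 Tris-HCl, on recombinant human α1D receptor in HEK-293 cells. Compounds tested at 1 μM or below in 1% DMSO; 10 μM phentolamine set non-specific binding.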
As to `Cc1ccc2c(c1)c1c(n2CCNC(=O)c2ccncc2)CCN(C)C1` [Compound 50, N-(2-(1,2,3,4-tetrahydro-2,8-dimethylpyrido[4,3-b]indol-5-yl)ethyl)isonicotinamide], the inhibition at 1 µM came out at 37%.
`CCOC(=O)CCCn1c2c(c3cc(C)ccc31)CN(C)CC2` [Compound 5, ethyl 4-(1,2,3,4-tetrahydro-2,8-dimethylpyrido[4,3-b]indol-5-yl)butanoate]: the inhibition at 1 µM was 70%.
Still for that read-out and setting: the figure for `CN1CCc2c(c3cc(Cl)ccc3n2CC(N)=O)C1` [Compound 45, 2-(8-chloro-1,2,3,4-tetrahydro-2-methylpyrido[4,3-b]indol-5-yl)acetamide] is 12%; for `Cc1ccc2c(c1)c1c(n2CC(=O)NC(C)C)CCN(C)C1` [Compound 23, 2-(1,2,3,4-tetrahydro-2,8-dimethylpyrido[4,3-b]indol-5-yl)-N-isopropylacetamide] it is 15%; for `Cc1ccc2c(c1)c1c(n2CCNC(=O)C2CCCCC2)CCN(C)C1` [Compound 62, N-(2-(1,2,3,4-tetrahydro-2,8-dimethylpyrido[4,3-b]indol-5-yl)ethyl)cyclohexanecarboxamide] it is 64%.
Same read-out and setting: the figure for `CN1CCc2c(c3cc(Cl)ccc3n2CCC#N)C1` [CD94, 3-(8-chloro-2-methyl-3,4-dihydro-1H-pyrido[4,3-b]indol-5(2H)-yl)propanenitrile] is 74%; for `Cc1ccc2c(c1)c1c(n2CC(=O)NC(C)(C)C)CCN(C)C1` [Compound 24, N-tert-butyl-2-(1,2,3,4-tetrahydro-2,8-dimethylpyrido[4,3-b]indol-5-yl)acetamide] it is -4%; for `CN1CCc2c(c3cc(Cl)ccc3n2CCO)C1` [CD89, 2-(8-chloro-2-methyl-3,4-dihydro-1H-pyrido[4,3-b]indol-5(2H)-yl)ethanol] it is 69%.
For `Cc1ccc2c(c1)c1c(n2CCC(=O)NC2CCCCC2)CCN(C)C1` [Compound 3, N-cyclohexyl-3-(1,2,3,4-tetrahydro-2,8-dimethylpyrido[4,3-b]indol-5-yl)propanamide], the inhibition at 1 µM was determined as 45%.
As to `Cc1ccc2c(c1)c1c(n2CCC(N)=O)CCN(C)C1` [Compound 46, 3-(1,2,3,4-tetrahydro-2,8-dimethylpyrido[4,3-b]indol-5-yl)propanamide], the inhibition at 1 µM was determined as 7%.
Still for that read-out and setting: next, `CN1CCc2c(c3cc(Cl)ccc3n2CCC(=O)OCc2ccccc2)C1` [Compound 19, benzyl 3-(8-chloro-1,2,3,4-tetrahydro-2-methylpyrido[4,3-b]indol-5-yl)propanoate]: 83%.
Regarding `Cc1ccc2c(c1)c1c(n2CCC(=O)Nc2ccccc2)CCN(C)C1` [Compound 29], the inhibition at 1 µM is 74%.
Regarding `Cc1ccc2c(c1)c1c(n2CCC(=O)NC(C)(C)C)CCN(C)C1` [Compound 28], the inhibition at 1 µM is 58%.

Still in this test, the particulars now being: read-out: Adrenergic (1 μM) α1D, percent inhibition of specific binding.
In the case of `CN1CCc2c(c3cc(Cl)ccc3n2CCBr)C1` [CD88, 5-(2-bromoethyl)-8-chloro-2-methyl-2,3,4,5-tetrahydro-1H-pyrido[4,3-b]indole], the inhibition at 1 µM was determined as 94%.

The next test has as its target T3, human recombinant adrenergic α2B receptor (Homo sapiens, UniProt P18089).
T3 construct: expressed in transfected cells; host or cells: CHO-K1 cells
T3 sequence (P18089 1-450): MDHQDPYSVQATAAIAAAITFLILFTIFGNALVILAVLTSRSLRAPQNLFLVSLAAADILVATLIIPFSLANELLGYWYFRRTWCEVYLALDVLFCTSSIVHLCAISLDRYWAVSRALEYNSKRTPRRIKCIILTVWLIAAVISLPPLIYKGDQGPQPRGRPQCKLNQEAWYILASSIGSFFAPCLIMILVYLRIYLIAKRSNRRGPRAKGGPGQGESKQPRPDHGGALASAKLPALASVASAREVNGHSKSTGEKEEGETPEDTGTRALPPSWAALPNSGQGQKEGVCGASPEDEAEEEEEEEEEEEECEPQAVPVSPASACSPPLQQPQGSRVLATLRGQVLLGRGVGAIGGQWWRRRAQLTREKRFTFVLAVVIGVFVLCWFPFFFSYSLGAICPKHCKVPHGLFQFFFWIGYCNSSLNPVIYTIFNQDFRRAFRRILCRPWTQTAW
The experiment in a line: Adrenergic α2B radioligand binding ([3H]Rauwolscine). As to conditions: compound at 1 μM; CHO-K1 cells; read-out: Adrenergic (1 μM) α2B, percent inhibition of specific binding. The method, boiled down:
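CHO-K1 membranes expressing the receptor were incubated with test compounds (1 μM or lower, 1% DMSO) and 2.5 nM [3H]Rauwolscine for 60 min at 25° C in Tris-HCl pH 7.4 with MgCl2, EDTA and BSA. Bound radioactivity was filtered and counted; nonspecific binding was defined with 10 μM Prazosin, giving percent inhibition of specific binding.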
With `Cc1ccc2c(c1)c1c(n2CCNC(=O)c2ccncc2)CCN(C)C1` [Compound 50, N-(2-(1,2,3,4-tetrahydro-2,8-dimethylpyrido[4,3-b]indol-5-yl)ethyl)isonicotinamide], the inhibition at 1 µM turned out to be 70%.
With `CCOC(=O)CCCn1c2c(c3cc(C)ccc31)CN(C)CC2` [Compound 5, ethyl 4-(1,2,3,4-tetrahydro-2,8-dimethylpyrido[4,3-b]indol-5-yl)butanoate], the inhibition at 1 µM came to 98%.
The same measure, in the same setting: the figure for `CN1CCc2c(c3cc(Cl)ccc3n2CC(N)=O)C1` [Compound 45, 2-(8-chloro-1,2,3,4-tetrahydro-2-methylpyrido[4,3-b]indol-5-yl)acetamide] is 18%.
On the same count and under the same terms, the figure for `Cc1ccc2c(c1)c1c(n2CC(=O)NC(C)C)CCN(C)C1` [Compound 23, 2-(1,2,3,4-tetrahydro-2,8-dimethylpyrido[4,3-b]indol-5-yl)-N-isopropylacetamide] is 18%.
Still for that read-out and setting: the figure for `Cc1ccc2c(c1)c1c(n2CCNC(=O)C2CCCCC2)CCN(C)C1` [Compound 62, N-(2-(1,2,3,4-tetrahydro-2,8-dimethylpyrido[4,3-b]indol-5-yl)ethyl)cyclohexanecarboxamide] is 92%.
Regarding `CN1CCc2c(c3cc(Cl)ccc3n2CCC#N)C1` [CD94, 3-(8-chloro-2-methyl-3,4-dihydro-1H-pyrido[4,3-b]indol-5(2H)-yl)propanenitrile], the inhibition at 1 µM amounted to 86%.
On to `Cc1ccc2c(c1)c1c(n2CC(=O)NC(C)(C)C)CCN(C)C1` [Compound 24, N-tert-butyl-2-(1,2,3,4-tetrahydro-2,8-dimethylpyrido[4,3-b]indol-5-yl)acetamide], for which the inhibition at 1 µM turned out to be 13%.
The same measure, in the same setting: the figure for `CN1CCc2c(c3cc(Cl)ccc3n2CCO)C1` [CD89, 2-(8-chloro-2-methyl-3,4-dihydro-1H-pyrido[4,3-b]indol-5(2H)-yl)ethanol] is 100%.
As to `Cc1ccc2c(c1)c1c(n2CCC(=O)NC2CCCCC2)CCN(C)C1` [Compound 3, N-cyclohexyl-3-(1,2,3,4-tetrahydro-2,8-dimethylpyrido[4,3-b]indol-5-yl)propanamide], the inhibition at 1 µM worked out at 80%.
The same measure, in the same setting: next, `Cc1ccc2c(c1)c1c(n2CCC(N)=O)CCN(C)C1` [Compound 46, 3-(1,2,3,4-tetrahydro-2,8-dimethylpyrido[4,3-b]indol-5-yl)propanamide]: 46%.
On the same count and under the same terms, next, `CN1CCc2c(c3cc(Cl)ccc3n2CCC(=O)OCc2ccccc2)C1` [Compound 19, benzyl 3-(8-chloro-1,2,3,4-tetrahydro-2-methylpyrido[4,3-b]indol-5-yl)propanoate]: 106%; `Cc1ccc2c(c1)c1c(n2CCC(=O)Nc2ccccc2)CCN(C)C1` [Compound 29]: 79%.
In the case of `Cc1ccc2c(c1)c1c(n2CCC(=O)NC(C)(C)C)CCN(C)C1` [Compound 28], the inhibition at 1 µM came to 85%.

Still in this test, the particulars now being: read-out: Adrenergic (1 μM) α2B, percent inhibition of specific binding.
On to `CN1CCc2c(c3cc(Cl)ccc3n2CCBr)C1` [CD88, 5-(2-bromoethyl)-8-chloro-2-methyl-2,3,4,5-tetrahydro-1H-pyrido[4,3-b]indole], for which the inhibition at 1 µM worked out at 104%.

Values taken from patent US9115137B2, “2,3,4,5-tetrahydro-1H-pyrido[4,3-B]indole compounds and methods of use thereof” (priority 2008, dated 2015).
